Measured values published in patent US20260053811A1, “METHODS OF TREATING HYPERTENSION IN OBESE SUBJECTS” (Mineralys Therapeutics, Inc., priority 2022, published 2026).

System: hypertensive subjects
Test: Seated automated office blood pressure (AOBP) in randomized, placebo-controlled, dose-ranging study
Format: in vivo, human
Conditions: Part 1, 50 mg QD
Method: A randomized, double-blinded, placebo-controlled, dose-ranging, multicenter study was conducted to evaluate the effect of orally administered Compound A HBr on blood pressure for the treatment of hypertension in male and female subjects ≥18 years of age.
The study consists of two parts. For enrollment into Part 1 of the study, a subject's value of plasma renin activity (PRA) must be ≤1 ng/mL/h based on morning measurement. If the value of PRA >1 ng/mL/h based on morning measurement, then subjects may be eligible to enter Part 2 of the study.
For Part 1, 163 enrolled subjects ≥18 years of age were randomized into 6 equal treatment groups (1:1:1:1:1:1) to 12.5 mg BID, 25 mg BID, 12.5 mg QD, 50 mg QD, 100 mg QD, or placebo. After a review of interim clinical data, the 2 lowest dose levels (12.5 mg QD and 12.5 mg BID) were stopped for future randomization due to a lack of consistent meaningful reduction of blood pressure, but the patients randomized to that point remained in the study through completion. Thus, after the review of interim clinical data, subjects were randomized into 4 equal treatment groups (1:1:1:1) to 25 mg BID, 50 mg QD, 100 mg QD, or placebo.
For Part 2, 36 enrolled subjects ≥18 years of age were randomized (5:1) to either 100 mg QD Compound A HBr or placebo such that the Compound A HBr treatment group consisted of approximately 30 subjects and the placebo treatment group will consist of approximately 6 subjects.
Subjects orally administered the assigned study drug (Compound A HBr or placebo) according to the assigned dosing regimen for 8 weeks beginning on Study Day 1. All subjects in Part 1 (regardless of dosing group) received BID dosing to preserve the integrity of the blind; active drug is administered as the morning dose for all QD dose groups. Subjects returned to the research facility or were seen by the clinical investigator or approved home health care professional at the end of Study Weeks 1, 2, 3, 4, 5, 6, 7, and 8 (±2 days) for protocol-defined efficacy and safety assessments and procedures, assessment of adverse events (AEs), and confirmation of compliance with study drug usage. Subjects also completed a telephone visit and blood pressure (BP) check at home approximately 3 days post last dose of study drug. Subjects attended up to 14 full clinic visits, including a pre-Screening visit, a Screening/start of Placebo Run-in visit, a second visit during Placebo Run-in, a clinic visit to initiate the ABPM procedure, a Randomization visit, 8 weekly visits during double-blind treatment, and an end-of-study visit scheduled 4 weeks after the last study treatment for final efficacy and safety assessments.
An automated oscillometric sphygmomanometer device was used to measure the subjects' systolic and diastolic blood pressure in office after approximately 5 minutes of rest in the seated position.
The primary endpoint is the change in office-measured (mean of last 2 of 5 unattended measurements using an automated oscillometric sphygmomanometer device after approximately 5 minutes of rest in the seated position) systolic blood pressure (SBP) from baseline to the end of Study Week 8.
Secondary endpoints of this study were: • (a) Change in 24-hour ambulatory blood pressure monitoring (ABPM) parameters (systolic and diastolic) from baseline to the end of Study Week 7. • (b) Change in office-measured SBP from baseline to the end of Study Weeks 1, 2, 3, 4, 5, 6, and 7. • (c) Change in office-measured diastolic blood pressure (DBP) from baseline to the end of Study Weeks 1, 2, 3, 4, 5, 6, 7, and 8. • (d) Proportion of subjects who achieve office-measured BP of ≤130/80 mm Hg by the end of Study Week 8.

For `CC(=O)N[C@H]1CC[C@H](NC(=O)CN2CCN(c3nncc(-c4ccc(C)cc4)n3)CC2)CC1` [Compound A HBr], the “Mean (SD) Change from Baseline at Week 8 in Automated Office-Measured Systolic Blood Pressure” value (ACEi/ARB Yes) was −15.75 (17.46) mmHg, the “Mean (SD) Automated Office-Measured Diastolic Blood Pressure at Wk 8” value (ACEi/ARBs No) was 78.75 (13.72) mmHg and the “Mean (SD) Change from Baseline at Week 8 in Automated Office-Measured Diastolic Blood Pressure” value (ACEi/ARBs No) was −4.44 (10.67) mmHg. For the same compound, the “Mean (SD) Automated Office-Measured Diastolic Blood Pressure at Wk 8” value (ACEi/ARBs Yes) was 76.05 (8.09) mmHg, the “Mean (SD) Change from Baseline at Week 8 in Automated Office-Measured Diastolic Blood Pressure” value (ACEi/ARBs Yes) was −9.50 (8.30) mmHg and the “Mean (SD) Automated Office-Measured Diastolic Blood Pressure at Wk 8” value (AHTs 2) was 76.40 (10.12) mmHg. The “Mean (SD) Automated Office-Measured Systolic Blood Pressure at Wk 8” value (AHTs 2) was 129.60 (13.98) mmHg, the “Mean (SD) Change from Baseline at Week 8 in Automated Office-Measured Diastolic Blood Pressure” value (AHTs 2) was −7.03 (9.50) mmHg and the “Mean (SD) Change from Baseline at Week 8 in Automated Office-Measured Systolic Blood Pressure” value (AHTs 2) was −10.28 (15.34) mmHg. For the same compound, the “Mean (SD) Automated Office-Measured Diastolic Blood Pressure at Wk 8” value (AHTs ≥3) was 77.88 (9.58) mmHg, the “Mean (SD) Automated Office-Measured Systolic Blood Pressure at Wk 8” value (AHTs ≥3) was 126.25 (13.56) mmHg and the “Mean (SD) Change from Baseline at Week 8 in Automated Office-Measured Diastolic Blood Pressure” value (AHTs ≥3) was −10.63 (8.12) mmHg. The “Mean (SD) Change from Baseline at Week 8 in Automated Office-Measured Systolic Blood Pressure” value (AHTs ≥3) was −20.44 (20.36) mmHg, the “Mean (SD) Automated Office-Measured Diastolic Blood Pressure at Wk 8” value (Age 65-79 yr) was 72.54 (8.04) mmHg and the “Mean (SD) Automated Office-Measured Systolic Blood Pressure at Wk 8” value (Age 65-79 yr) was 127.92 (13.82) mmHg. For the same compound, the “Mean (SD) Change from Baseline at Week 8 in Automated Office-Measured Diastolic Blood Pressure” value (Age 65-79 yr) was −8.88 (9.23) mmHg, the “Mean (SD) Change from Baseline at Week 8 in Automated Office-Measured Systolic Blood Pressure” value (Age 65-79 yr) was −15.15 (18.27) mmHg and the “Mean (SD) Automated Office-Measured Diastolic Blood Pressure at Wk 8” value (Age <65 yr) was 80.53 (9.93) mmHg. For the same compound, the “Mean (SD) Automated Office-Measured Systolic Blood Pressure at Wk 8” value (Age <65 yr) was 129.27 (14.04) mmHg, the “Mean (SD) Change from Baseline at Week 8 in Automated Office-Measured Diastolic Blood Pressure” value (Age <65 yr) was −7.33 (9.30) mmHg and the “Mean (SD) Change from Baseline at Week 8 in Automated Office-Measured Systolic Blood Pressure” value (Age <65 yr) was −11.47 (16.60) mmHg. For the same compound, the “Mean (SD) Automated Office-Measured Diastolic Blood Pressure at Wk 8” value (BMI 25−30 kg/m^2) was 80.27 (6.29) mmHg, the “Mean (SD) Change from Baseline at Week 8 in Automated Office-Measured Diastolic Blood Pressure” value (BMI 25−30 kg/m^2) was −4.50 (8.75) mmHg and the “Mean (SD) Automated Office-Measured Diastolic Blood Pressure at Wk 8” value (BMI <25 kg/m^2) was 61.00 (NE) mmHg. The “Mean (SD) Change from Baseline at Week 8 in Automated Office-Measured Diastolic Blood Pressure” value (BMI <25 kg/m^2) was −24.50 (NE) mmHg, the “Mean (SD) Automated Office-Measured Diastolic Blood Pressure at Wk 8” value (BMI >30 kg/m^2) was 76.07 (11.02) mmHg and the “Mean (SD) Change from Baseline at Week 8 in Automated Office-Measured Diastolic Blood Pressure” value (BMI >30 kg/m^2) was −9.67 (8.59) mmHg. The “Mean (SD) Automated Office-Measured Systolic Blood Pressure at Wk 8” value (BMI at baseline 25-30 kg/m^2) was 136.64 (14.70) mmHg, the “Mean (SD) Change from Baseline at Week 8 in Automated Office-Measured Systolic Blood Pressure” value (BMI at baseline 25-30 kg/m^2) was −2.45 (15.21) mmHg and the “Mean (SD) Automated Office-Measured Systolic Blood Pressure at Wk 8” value (BMI at baseline <25 kg/m^2) was 118.00 (NE) mmHg. The “Mean (SD) Change from Baseline at Week 8 in Automated Office-Measured Systolic Blood Pressure” value (BMI at baseline <25 kg/m^2) was −38.00 (NE) mmHg, the “Mean (SD) Automated Office-Measured Systolic Blood Pressure at Wk 8” value (BMI at baseline >30 kg/m^2) was 124.13 (10.98) mmHg and the “Mean (SD) Change from Baseline at Week 8 in Automated Office-Measured Systolic Blood Pressure” value (BMI at baseline >30 kg/m^2) was −19.27 (15.13) mmHg. The “Mean (SD) Automated Office-Measured Diastolic Blood Pressure at Wk 8” value (Race Black or AA) was 83.25 (8.88) mmHg, the “Mean (SD) Automated Office-Measured Systolic Blood Pressure at Wk 8” value (Race Black or AA) was 130.38 (14.12) mmHg and the “Mean (SD) Change from Baseline at Week 8 in Automated Office-Measured Diastolic Blood Pressure” value (Race Black or AA) was −4.88 (8.84) mmHg. The “Mean (SD) Change from Baseline at Week 8 in Automated Office-Measured Systolic Blood Pressure” value (Race Black or AA) was −12.31 (18.13) mmHg, the “Mean (SD) Automated Office-Measured Diastolic Blood Pressure at Wk 8” value (Race Other) was 74.25 (9.14) mmHg and the “Mean (SD) Automated Office-Measured Systolic Blood Pressure at Wk 8” value (Race Other) was 127.95 (13.83) mmHg. The “Mean (SD) Change from Baseline at Week 8 in Automated Office-Measured Diastolic Blood Pressure” value (Race Other) was −9.33 (9.15) mmHg, the “Mean (SD) Change from Baseline at Week 8 in Automated Office-Measured Systolic Blood Pressure” value (Race Other) was −13.53 (17.25) mmHg and the “Mean (SD) Automated Office-Measured Diastolic Blood Pressure at Wk 8” value (Seated SBP Tertile High) was 73.25 (8.33) mmHg. The “Mean (SD) Change from Baseline at Week 8 in Automated Office-Measured Diastolic Blood Pressure” value (Seated SBP Tertile High) was −13.94 (7.82) mmHg, the “Mean (SD) Automated Office-Measured Diastolic Blood Pressure at Wk 8” value (Seated SBP Tertile Low) was 81.08 (9.65) mmHg and the “Mean (SD) Change from Baseline at Week 8 in Automated Office-Measured Diastolic Blood Pressure” value (Seated SBP Tertile Low) was 2.42 (8.22) mmHg. For the same compound, the “Mean (SD) Automated Office-Measured Diastolic Blood Pressure at Wk 8” value (Seated SBP Tertile Middle) was 74.00 (10.06) mmHg.
